According to ChEMBL document CHEMBL1201862, “PubChem BioAssay data set” (2004):
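A five-concentration, 48-hour dose response in 96-well plates underlies each endpoint, interpolated linearly between surrounding concentrations. GI50 = concentration required for 50% inhibition of growth.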 Activity calls are given as the source filed them. Rule as the data show it: active = GI50 up to about 1.1 µM and inactive = higher.

Columns and labels:
Test in all cases: growth of human tumour cells (NCI), 48 h
[1] = system: A549
[2] = system: ACHN
[3] = system: EKVX
[4] = system: HCC 2998
[5] = system: M14
[6] = system: NCI-H23
[7] = system: NCI-H460
[8] = system: RPMI-8226
[9] = system: RXF 393
[10] = system: SF-268
[11] = system: SK-MEL-2
[12] = system: SNB-19
[13] = system: TK-10
[14] = system: UACC-257
[15] = system: UACC-62
[16] = system: UO-31
[17] = system: SR

| SMILES | GI50 [1] | GI50 [2] | GI50 [3] | GI50 [4] | GI50 [5] | GI50 [6] | GI50 [7] | GI50 [8] | GI50 [9] | GI50 [10] | GI50 [11] | GI50 [12] | GI50 [13] | GI50 [14] | GI50 [15] | GI50 [16] | GI50 [17] |
| --- | --- | --- | --- | --- | --- | --- | --- | --- | --- | --- | --- | --- | --- | --- | --- | --- | --- |
| Cc1ccccc1N(CC(=O)O)S(=O)(=O)c1ccccc1 | > 100 µM (inactive) | > 100 µM (inactive) | > 100 µM (inactive) | > 100 µM (inactive) | > 100 µM (inactive) | > 100 µM (inactive) | > 100 µM (inactive) | > 100 µM (inactive) | > 100 µM (inactive) | > 100 µM (inactive) | > 100 µM (inactive) | > 100 µM (inactive) | > 100 µM (inactive) | > 100 µM (inactive) | > 100 µM (inactive) | > 100 µM (inactive) |  |
| COc1cc(Cl)c2c3c(c(C(C)=O)oc13)CCC2 | > 100 µM (inactive) | > 100 µM (inactive) | > 100 µM (inactive) | > 100 µM (inactive) | > 100 µM (inactive) | > 100 µM (inactive) | > 100 µM (inactive) | 86.9 µM (inactive) | 85.1 µM (inactive) |  |  | > 100 µM (inactive) | > 100 µM (inactive) | > 100 µM (inactive) | > 100 µM (inactive) |  |  |
| COc1cc(/C=C\c2ccc(Br)cc2)cc(OC)c1OC | 0.000589 µM (active) | 0.000794 µM (active) | 0.00385 µM (active) | 0.0155 µM (active) | 0.000312 µM (active) | 0.000904 µM (active) | 0.01 µM (active) | 0.000582 µM (active) |  | 0.000792 µM (active) | 0.00794 µM (active) | 0.0057 µM (active) |  | 0.000414 µM (active) | 0.000404 µM (active) | 0.00321 µM (active) | 0.01 µM (active) |
| COC(=O)Cc1nn2c(nc1=O)sc1ccc3ccccc3c12 | > 100 µM (inactive) | 56.9 µM (inactive) | > 100 µM (inactive) | > 100 µM (inactive) | > 100 µM (inactive) | > 100 µM (inactive) | 62.7 µM (inactive) |  | 50.7 µM (inactive) |  | 93.8 µM (inactive) | > 100 µM (inactive) |  | > 100 µM (inactive) |  | > 100 µM (inactive) | > 100 µM (inactive) |
| CC(=O)NC(CCCCN(Cc1ccccc1)C(=O)N(C)N=O)C(=O)NCc1ccccc1 (stereo not drawn) | 95.9 µM (inactive) | > 100 µM (inactive) | 90.4 µM (inactive) | > 100 µM (inactive) | > 100 µM (inactive) | > 100 µM (inactive) | 88.7 µM (inactive) | 40.6 µM (inactive) | 72.1 µM (inactive) | 38.9 µM (inactive) | > 100 µM (inactive) | > 100 µM (inactive) | > 100 µM (inactive) | > 100 µM (inactive) | > 100 µM (inactive) | 47.3 µM (inactive) |  |
| C[C@]12Cc3cn[nH]c3C(=O)C1CC[C@@H]1C2CC[C@@]2(C)C1CC[C@]2(C)O (stereo partly drawn) | > 100 µM (inactive) | > 100 µM (inactive) | > 100 µM (inactive) | > 100 µM (inactive) | > 100 µM (inactive) | > 100 µM (inactive) | > 100 µM (inactive) | > 100 µM (inactive) | > 100 µM (inactive) | > 100 µM (inactive) | > 100 µM (inactive) | > 100 µM (inactive) | > 100 µM (inactive) | > 100 µM (inactive) | > 100 µM (inactive) | > 100 µM (inactive) |  |
| C=C=C(C(=O)OC)[S+]([O-])c1ccccc1[N+](=O)[O-] (stereo not drawn) | > 100 µM (inactive) | > 100 µM (inactive) | > 100 µM (inactive) | > 100 µM (inactive) | > 100 µM (inactive) | > 100 µM (inactive) | > 100 µM (inactive) | > 100 µM (inactive) | > 100 µM (inactive) | > 100 µM (inactive) | > 100 µM (inactive) | > 100 µM (inactive) | > 100 µM (inactive) | > 100 µM (inactive) | > 100 µM (inactive) | > 100 µM (inactive) |  |
| O=c1[nH]c(Br)nc2c(N3CCCCC3)c[nH]c12 | > 100 µM (inactive) | > 100 µM (inactive) | > 100 µM (inactive) |  | > 100 µM (inactive) | > 100 µM (inactive) | > 100 µM (inactive) | > 100 µM (inactive) | > 100 µM (inactive) | > 100 µM (inactive) | > 100 µM (inactive) | > 100 µM (inactive) | > 100 µM (inactive) | > 100 µM (inactive) | > 100 µM (inactive) | > 100 µM (inactive) |  |
| Cc1ccc([Se][Se]c2ccc(C)cc2)cc1 | 33.3 µM (inactive) | 25.3 µM (inactive) |  | 53.8 µM (inactive) | > 10 µM (inactive) | 23.8 µM (inactive) | 37.8 µM (inactive) | 5.02 µM (inactive) | 19.9 µM (inactive) | 6.84 µM (inactive) | 45.2 µM (inactive) | 33 µM (inactive) | 67.9 µM (inactive) | 17 µM (inactive) | 9.4 µM (inactive) | 14.1 µM (inactive) |  |
| COCCCNC(=O)C1C(=O)C(=O)N(CCCOC)C1=O (stereo not drawn) | > 100 µM (inactive) | > 100 µM (inactive) | > 100 µM (inactive) | > 100 µM (inactive) | > 100 µM (inactive) | > 100 µM (inactive) |  | > 100 µM (inactive) |  | > 100 µM (inactive) | > 100 µM (inactive) | > 100 µM (inactive) | > 100 µM (inactive) | > 100 µM (inactive) | > 100 µM (inactive) | > 100 µM (inactive) | > 100 µM (inactive) |
| N=C(N)N/N=C(/CC1OC(=O)c2ccccc21)c1ccc2ccccc2c1 (stereo not drawn) |  | 18.9 µM (inactive) | 23.1 µM (inactive) | 17.3 µM (inactive) | 16.7 µM (inactive) | 26.2 µM (inactive) | 16.4 µM (inactive) | 17.1 µM (inactive) |  | 13.6 µM (inactive) | 46.9 µM (inactive) | > 100 µM (inactive) | 18.1 µM (inactive) | 14.6 µM (inactive) | 17.9 µM (inactive) | 17.8 µM (inactive) | 14.2 µM (inactive) |
| CCOC(=O)/C(O)=C1\C(=O)N(C)C(=O)C1c1cccc(OC)c1 (stereo not drawn) | > 100 µM (inactive) |  | > 100 µM (inactive) | > 100 µM (inactive) |  | > 100 µM (inactive) | > 100 µM (inactive) | > 100 µM (inactive) | > 100 µM (inactive) | > 100 µM (inactive) | > 100 µM (inactive) | > 100 µM (inactive) |  | > 100 µM (inactive) | > 100 µM (inactive) | > 100 µM (inactive) |  |
| NC(=O)N/C=C1\C(=O)Oc2ccccc2C1=O | 10 µM (inactive) | 48.2 µM (inactive) | > 100 µM (inactive) | > 100 µM (inactive) | 82.8 µM (inactive) | > 100 µM (inactive) | > 100 µM (inactive) | > 100 µM (inactive) | 17.4 µM (inactive) | 95.7 µM (inactive) | 40 µM (inactive) | 82.8 µM (inactive) | > 100 µM (inactive) | 89.9 µM (inactive) | 77.8 µM (inactive) | 31.9 µM (inactive) |  |
| CCN(CC)CCNC(=O)C1COc2ccc(-c3cc(=O)c4ccccc4o3)cc2O1 (stereo not drawn) | 23.6 µM (inactive) |  | 26.7 µM (inactive) | 19.2 µM (inactive) |  | 22 µM (inactive) | 16.8 µM (inactive) | 22.5 µM (inactive) | 20 µM (inactive) | 19.5 µM (inactive) | 19.8 µM (inactive) | 20.2 µM (inactive) |  | 17.6 µM (inactive) | 17.6 µM (inactive) | 16 µM (inactive) |  |
| C[C@]12CC[C@H](OC(=O)Nc3ccccc3)CC1=CC[C@@H]1C2CC[C@]2(C)/C(=N/OC(=O)Nc3ccccc3)CCC12 (stereo partly drawn) | 7.85 µM (inactive) | 7.14 µM (inactive) | 30.1 µM (inactive) | > 100 µM (inactive) | 12.5 µM (inactive) | > 100 µM (inactive) | 25.6 µM (inactive) | 5.57 µM (inactive) |  | 7.94 µM (inactive) | > 100 µM (inactive) | 76.2 µM (inactive) | 6.61 µM (inactive) |  | > 100 µM (inactive) | 1.92 µM (inactive) |  |
| O=c1[nH]c2cc(-c3ccccc3)nc-2nn1-c1c(Cl)cc(Cl)cc1Cl | 37.6 µM (inactive) |  | 24.9 µM (inactive) | 4.03 µM (inactive) | 23.9 µM (inactive) | 24.9 µM (inactive) | 30.4 µM (inactive) | 24.3 µM (inactive) |  | > 100 µM (inactive) | 26.5 µM (inactive) | 33.1 µM (inactive) | 28.6 µM (inactive) | 29.5 µM (inactive) | 17.5 µM (inactive) | 22.3 µM (inactive) | 23.7 µM (inactive) |
| C=CCNC(=O)N(CCCC(NC(C)=O)C(=O)NCc1ccccc1)Cc1ccccc1 (stereo not drawn) | > 100 µM (inactive) | > 100 µM (inactive) | > 100 µM (inactive) |  | > 100 µM (inactive) | > 100 µM (inactive) | > 100 µM (inactive) | > 100 µM (inactive) | > 100 µM (inactive) | > 100 µM (inactive) | > 100 µM (inactive) | > 100 µM (inactive) | > 100 µM (inactive) | > 100 µM (inactive) | > 100 µM (inactive) | > 100 µM (inactive) |  |
| COc1ccc2c(c1)[n+]([O-])c(-c1nc3ccccc3s1)c(N)[n+]2[O-] | > 100 µM (inactive) | 93.1 µM (inactive) | > 100 µM (inactive) |  | > 100 µM (inactive) | 64.9 µM (inactive) | 47.3 µM (inactive) | 35.5 µM (inactive) |  |  | > 100 µM (inactive) | > 100 µM (inactive) |  | 63.5 µM (inactive) |  | 34 µM (inactive) | 59.6 µM (inactive) |
